{"source": "PubChem BioAssay AID1259407", "about": "(Chemical Carcinogenesis Research Information System (CCRIS), 2018)", "test_system": "CCRIS mutagenicity, Ames/micronucleus/aberration tests", "test": "CCRIS mutagenicity studies", "key": {"[1]": {"details": "Test System: AMES SALMONELLA TYPHIMURIUM, Strain/Indicator: TA98, Metabolic Activation: NONE, Method: PREINCUBATION"}, "[2]": {"details": "Test System: AMES SALMONELLA TYPHIMURIUM, Strain/Indicator: TA98, Metabolic Activation: NONE, Method: STANDARD PLATE"}, "[3]": {"details": "Test System: AMES SALMONELLA TYPHIMURIUM, Strain/Indicator: TA98, Metabolic Activation: RAT, LIVER, S-9, AROCLOR 1254, Method: PREINCUBATION"}, "[4]": {"details": "Test System: AMES SALMONELLA TYPHIMURIUM, Strain/Indicator: TA98, Metabolic Activation: RAT, LIVER, S-9, AROCLOR 1254, Method: STANDARD PLATE"}, "[5]": {"details": "Test System: AMES SALMONELLA TYPHIMURIUM, Strain/Indicator: TA100, Metabolic Activation: NONE, Method: STANDARD PLATE"}, "[6]": {"details": "Test System: AMES SALMONELLA TYPHIMURIUM, Strain/Indicator: TA100, Metabolic Activation: RAT, LIVER, S-9, AROCLOR 1254, Method: STANDARD PLATE"}}, "note": "The source made the active and inactive calls. How the calls were made is not given here."}
{"molecule": "Nc1ccc(N)c2c1C(=O)c1c(N)ccc(N)c1C2=O", "values": [{"measurement": "mutagenic call", "setting": "End Point: IN VITRO CHROMOSOMAL ABERRATIONS, Test System: CHO CELLS, Metabolic Activation: NONE", "value": "active; positive"}, {"measurement": "mutagenic call", "setting": "End Point: IN VITRO CHROMOSOMAL ABERRATIONS, Test System: CHO CELLS, Metabolic Activation: RAT, LIVER, S-9, AROCLOR 1254", "value": "active; positive"}, {"measurement": "mutagenic call", "setting": "Test System: AMES SALMONELLA TYPHIMURIUM, Strain/Indicator: TA97, Metabolic Activation: HAMSTER, LIVER, S-9, AROCLOR 1254 (10%), Method: PREINCUBATION", "value": "inactive; negative"}, {"measurement": "mutagenic call", "setting": "Test System: AMES SALMONELLA TYPHIMURIUM, Strain/Indicator: TA97, Metabolic Activation: HAMSTER, LIVER, S-9, AROCLOR 1254, Method: PREINCUBATION", "value": "active; positive"}, {"measurement": "mutagenic call", "setting": "Test System: AMES SALMONELLA TYPHIMURIUM, Strain/Indicator: TA97, Metabolic Activation: NONE, Method: PREINCUBATION", "value": "active; positive"}, {"measurement": "mutagenic call", "setting": "Test System: AMES SALMONELLA TYPHIMURIUM, Strain/Indicator: TA97, Metabolic Activation: RAT, LIVER, S-9, AROCLOR 1254 (10%), Method: PREINCUBATION", "value": "inactive; negative"}, {"measurement": "mutagenic call", "setting": "Test System: AMES SALMONELLA TYPHIMURIUM, Strain/Indicator: TA97, Metabolic Activation: RAT, LIVER, S-9, AROCLOR 1254, Method: PREINCUBATION", "value": "active; positive"}, {"measurement": "mutagenic call", "setting": "Test System: AMES SALMONELLA TYPHIMURIUM, Strain/Indicator: TA98, Metabolic Activation: HAMSTER, LIVER, S-9, AROCLOR 1254 (10%), Method: PREINCUBATION", "value": "active; positive"}, {"measurement": "mutagenic call", "setting": "Test System: AMES SALMONELLA TYPHIMURIUM, Strain/Indicator: TA98, Metabolic Activation: HAMSTER, LIVER, S-9, AROCLOR 1254, Method: PREINCUBATION", "value": "active; positive"}, {"measurement": "mutagenic call", "setting": "[1]", "value": "active; positive"}, {"measurement": "mutagenic call", "setting": "[2]", "value": "inactive; negative"}, {"measurement": "mutagenic call", "setting": "Test System: AMES SALMONELLA TYPHIMURIUM, Strain/Indicator: TA98, Metabolic Activation: RAT, LIVER, S-9, AROCLOR 1254 (10%), Method: PREINCUBATION", "value": "active; positive"}, {"measurement": "mutagenic call", "setting": "[3]", "value": "active; positive"}, {"measurement": "mutagenic call", "setting": "[4]", "value": "inactive; negative"}, {"measurement": "mutagenic call", "setting": "Test System: AMES SALMONELLA TYPHIMURIUM, Strain/Indicator: TA100, Metabolic Activation: HAMSTER, LIVER, S-9, AROCLOR 1254 (10%), Method: PREINCUBATION", "value": "inactive; negative"}, {"measurement": "mutagenic call", "setting": "Test System: AMES SALMONELLA TYPHIMURIUM, Strain/Indicator: TA100, Metabolic Activation: HAMSTER, LIVER, S-9, AROCLOR 1254, Method: PREINCUBATION", "value": "inactive; negative"}, {"measurement": "mutagenic call", "setting": "Test System: AMES SALMONELLA TYPHIMURIUM, Strain/Indicator: TA100, Metabolic Activation: NONE, Method: PREINCUBATION", "value": "inactive; negative"}, {"measurement": "mutagenic call", "setting": "[5]", "value": "inactive; negative"}, {"measurement": "mutagenic call", "setting": "Test System: AMES SALMONELLA TYPHIMURIUM, Strain/Indicator: TA100, Metabolic Activation: RAT, LIVER, S-9, AROCLOR 1254 (10%), Method: PREINCUBATION", "value": "inactive; negative"}, {"measurement": "mutagenic call", "setting": "Test System: AMES SALMONELLA TYPHIMURIUM, Strain/Indicator: TA100, Metabolic Activation: RAT, LIVER, S-9, AROCLOR 1254, Method: PREINCUBATION", "value": "inactive; negative"}, {"measurement": "mutagenic call", "setting": "[6]", "value": "inactive; negative"}, {"measurement": "mutagenic call", "setting": "Test System: AMES SALMONELLA TYPHIMURIUM, Strain/Indicator: TA1535, Metabolic Activation: HAMSTER, LIVER, S-9, AROCLOR 1254 (10%), Method: PREINCUBATION", "value": "active; positive"}, {"measurement": "mutagenic call", "setting": "Test System: AMES SALMONELLA TYPHIMURIUM, Strain/Indicator: TA1535, Metabolic Activation: HAMSTER, LIVER, S-9, AROCLOR 1254, Method: PREINCUBATION", "value": "active; positive"}, {"measurement": "mutagenic call", "setting": "Test System: AMES SALMONELLA TYPHIMURIUM, Strain/Indicator: TA1535, Metabolic Activation: NONE, Method: PREINCUBATION", "value": "inactive; negative"}, {"measurement": "mutagenic call", "setting": "Test System: AMES SALMONELLA TYPHIMURIUM, Strain/Indicator: TA1535, Metabolic Activation: NONE, Method: STANDARD PLATE", "value": "inactive; negative"}, {"measurement": "mutagenic call", "setting": "Test System: AMES SALMONELLA TYPHIMURIUM, Strain/Indicator: TA1535, Metabolic Activation: RAT, LIVER, S-9, AROCLOR 1254 (10%), Method: PREINCUBATION", "value": "active; positive"}, {"measurement": "mutagenic call", "setting": "Test System: AMES SALMONELLA TYPHIMURIUM, Strain/Indicator: TA1535, Metabolic Activation: RAT, LIVER, S-9, AROCLOR 1254, Method: PREINCUBATION", "value": "active; positive"}, {"measurement": "mutagenic call", "setting": "Test System: AMES SALMONELLA TYPHIMURIUM, Strain/Indicator: TA1535, Metabolic Activation: RAT, LIVER, S-9, AROCLOR 1254, Method: STANDARD PLATE", "value": "inactive; negative"}, {"measurement": "mutagenic call", "setting": "Test System: AMES SALMONELLA TYPHIMURIUM, Strain/Indicator: TA1537, Metabolic Activation: NONE, Method: STANDARD PLATE", "value": "active; positive"}, {"measurement": "mutagenic call", "setting": "Test System: AMES SALMONELLA TYPHIMURIUM, Strain/Indicator: TA1538, Metabolic Activation: RAT, LIVER, S-9, AROCLOR 1254, Method: STANDARD PLATE", "value": "inactive; negative"}, {"measurement": "mutagenic call", "setting": "Test System: MOUSE LYMPHOMA, Strain/Indicator: L5178Y (TK+/TK-), Metabolic Activation: NONE, Method: SUSPENSION/PLATE", "value": "active; positive"}]}
{"molecule": "Cc1cccc2c3c(c4cc5ccccc5cc4c12)N3", "values": [{"measurement": "mutagenic call", "setting": "[1]", "value": "active; positive"}]}
{"molecule": "CON(C)C(=O)Nc1ccc(Br)cc1", "values": [{"measurement": "mutagenic call", "setting": "[2]", "value": "inactive; negative"}, {"measurement": "mutagenic call", "setting": "[4]", "value": "inactive; negative"}, {"measurement": "mutagenic call", "setting": "[5]", "value": "inactive; negative"}, {"measurement": "mutagenic call", "setting": "[6]", "value": "inactive; negative"}]}
{"molecule": "CCc1cccc(CC)c1NC(C)=O", "values": [{"measurement": "mutagenic call", "setting": "[1]", "value": "inactive; negative"}, {"measurement": "mutagenic call", "setting": "Test System: AMES SALMONELLA TYPHIMURIUM, Strain/Indicator: TA98, Metabolic Activation: RAT, LIVER, MICROSOMES, PHENOBARBITAL, Method: PREINCUBATION", "value": "inactive; negative"}]}
{"molecule": "c1cc2c3c(c4c(ccc5ccccc54)cc3c1)C1=C2O1", "values": [{"measurement": "mutagenic call", "setting": "Test System: CHINESE HAMSTER V-79, Strain/Indicator: V-79/6-THIOGUANINE, Metabolic Activation: NONE, Method: SUSPENSION/PLATE", "value": "active; positive"}]}
{"molecule": "CCn1c(N)nc2c3ncc(C)nc3ccc21", "values": [{"measurement": "mutagenic call", "setting": "[3]", "value": "active; positive"}]}
